Our source for the relative viability values is the supplement of paper PMC10307832.

Assay in all cases: relative viability (nuclei count vs DMSO), 5 days (fraction); higher = more cells survive
Compound in the experiment “AZ3146 + Decitabine”: CN1CCC(CC1)OC2=CC(=C(C=C2)NC3=NC=C4C(=N3)N(C(=O)N4C)C5CCCC5)OC [AZ3146] + Nc1ncn([C@H]2C[C@H](O)[C@@H](CO)O2)c(=O)n1 [Decitabine] (partner 2 µM)
In a few lines: (§1)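 Relative viability divides the nuclei count in treated wells by that in vehicle wells. Lung cancer cell lines were seeded in 1536-well plates, dosed by pin tool the next day, and fixed and stained after 5 days in one step with final 0.05% Triton X-100, 1% formaldehyde and 1 ug/ml Hoechst. Dosing was a single drug or a fixed anchor-drug dose plus five library-drug doses (not always all listed) in √10 steps, and values are medians of duplicate plates imaged at 4×.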

Compound in the experiment “AZ3146 + Linsitinib”: CN1CCC(CC1)OC2=CC(=C(C=C2)NC3=NC=C4C(=N3)N(C(=O)N4C)C5CCCC5)OC [AZ3146] + C[C@]1(O)C[C@@H](c2nc(-c3ccc4ccc(-c5ccccc5)nc4c3)c3c(N)nccn32)C1 [Linsitinib] (partner 1 µM)
The method, boiled down: as §1

Compound in the experiment “GSK-J4 + Luminespib”: CCOC(=O)CCNc1cc(N2CCc3ccccc3CC2)nc(-c2ccccn2)n1 [GSK-J4] + CCNC(=O)c1noc(-c2cc(C(C)C)c(O)cc2O)c1-c1ccc(CN2CCOCC2)cc1 [Luminespib] (partner 0.01 µM)
In a few lines: as §1

Compound in the experiment “AZ3146 + Trametinib”: CN1CCC(CC1)OC2=CC(=C(C=C2)NC3=NC=C4C(=N3)N(C(=O)N4C)C5CCCC5)OC [AZ3146] + CC(=O)Nc1cccc(-n2c(=O)n(C3CC3)c(=O)c3c(Nc4ccc(I)cc4F)n(C)c(=O)c(C)c32)c1 [Trametinib] (partner 0.02 µM)
In a few lines:
as §1

On to 201T, for which the relative viability was 0.856 with AZ3146 + Decitabine (first compound 0.08 µM); 0.858 with AZ3146 + Decitabine (first compound 0.253 µM); 0.885 in the experiment with AZ3146 + Decitabine (first compound 0.8 µM); 0.865 with AZ3146 + Decitabine (first compound 2.53 µM); 0.847 in the experiment with AZ3146 + Decitabine (first compound 8 µM); 0.876 with AZ3146 + Linsitinib (first compound 0.08 µM). The relative viability in the experiment with AZ3146 + Linsitinib (first compound 0.253 µM) was 1.06; in the experiment with AZ3146 + Linsitinib (first compound 0.8 µM), 1.05; with AZ3146 + Linsitinib (first compound 2.53 µM) it was 1.05; in the experiment with AZ3146 + Linsitinib (first compound 8 µM) it was 1.06; in the experiment with GSK-J4 + Luminespib (first compound 0.5 µM), 1.05; in the experiment with GSK-J4 + Luminespib (first compound 1.581 µM), 1.1. Besides, the relative viability in the experiment with GSK-J4 + Luminespib (first compound 5 µM) came out at 1.12; with GSK-J4 + Luminespib (first compound 15.81 µM) it was 1.02; with GSK-J4 + Luminespib (first compound 50 µM) it was 0.992; with AZ3146 + Trametinib (first compound 0.08 µM), 0.718; with AZ3146 + Trametinib (first compound 0.253 µM) it was 0.728; in the experiment with AZ3146 + Trametinib (first compound 0.8 µM), 0.73. For the same cell line, the relative viability with AZ3146 + Trametinib (first compound 2.53 µM) turned out to be 0.677; in the experiment with AZ3146 + Trametinib (first compound 8 µM), 0.685.
As for A549, the relative viability in the experiment with AZ3146 + Decitabine (first compound 0.08 µM) worked out at 0.318; in the experiment with AZ3146 + Decitabine (first compound 0.253 µM) it was 0.284; in the experiment with AZ3146 + Decitabine (first compound 0.8 µM) it was 0.332; with AZ3146 + Decitabine (first compound 2.53 µM), 0.316; in the experiment with AZ3146 + Decitabine (first compound 8 µM), 0.205; with AZ3146 + Linsitinib (first compound 0.08 µM), 0.653. For the same cell line, the relative viability with AZ3146 + Linsitinib (first compound 0.253 µM) was found to be 0.653; in the experiment with AZ3146 + Linsitinib (first compound 0.8 µM), 0.593; with AZ3146 + Linsitinib (first compound 2.53 µM) it was 0.571; with AZ3146 + Linsitinib (first compound 8 µM), 0.51.
As to A-427, the relative viability is 0.511 with AZ3146 + Decitabine (first compound 0.08 µM); 0.529 with AZ3146 + Decitabine (first compound 0.253 µM); 0.528 in the experiment with AZ3146 + Decitabine (first compound 0.8 µM); 0.56 with AZ3146 + Decitabine (first compound 2.53 µM); 0.401 with AZ3146 + Decitabine (first compound 8 µM); 1.08 in the experiment with AZ3146 + Linsitinib (first compound 0.08 µM). In addition, the relative viability with AZ3146 + Linsitinib (first compound 0.253 µM) was 1.07; with AZ3146 + Linsitinib (first compound 0.8 µM), 1.04; with AZ3146 + Linsitinib (first compound 2.53 µM), 1.19; with AZ3146 + Linsitinib (first compound 8 µM), 1.12; with GSK-J4 + Luminespib (first compound 0.5 µM) it was 0.866; with GSK-J4 + Luminespib (first compound 5 µM), 0.64. Further, the relative viability with GSK-J4 + Luminespib (first compound 15.81 µM) stood at 0.681; in the experiment with GSK-J4 + Luminespib (first compound 50 µM), 0.311; with AZ3146 + Trametinib (first compound 0.08 µM) it was 0.76; with AZ3146 + Trametinib (first compound 0.253 µM), 0.753; with AZ3146 + Trametinib (first compound 0.8 µM), 0.747; in the experiment with AZ3146 + Trametinib (first compound 2.53 µM), 0.751. Moreover, in the experiment with AZ3146 + Trametinib (first compound 8 µM), the relative viability came to 0.545.
Regarding ABC-1, the relative viability amounted to 1.02 in the experiment with AZ3146 + Decitabine (first compound 0.08 µM); 1.04 in the experiment with AZ3146 + Decitabine (first compound 0.253 µM); 1.33 with AZ3146 + Decitabine (first compound 0.8 µM); 1.05 with AZ3146 + Decitabine (first compound 2.53 µM); 1.09 in the experiment with AZ3146 + Decitabine (first compound 8 µM); 0.83 with AZ3146 + Linsitinib (first compound 0.08 µM). The relative viability was found to be 0.71 in the experiment with AZ3146 + Linsitinib (first compound 0.253 µM); 0.861 with AZ3146 + Linsitinib (first compound 0.8 µM); 0.855 with AZ3146 + Linsitinib (first compound 2.53 µM); 0.977 in the experiment with AZ3146 + Linsitinib (first compound 8 µM); 0.373 with GSK-J4 + Luminespib (first compound 0.5 µM); 0.496 with GSK-J4 + Luminespib (first compound 1.581 µM). The figures for the relative viability in the experiment with GSK-J4 + Luminespib (first compound 5 µM), with GSK-J4 + Luminespib (first compound 15.81 µM) and in the experiment with GSK-J4 + Luminespib (first compound 50 µM) were 0.594, 0.52 and 0.396, respectively.
Consider BEN, for which the relative viability turned out to be 0.673 in the experiment with AZ3146 + Decitabine (first compound 0.253 µM); 0.611 with AZ3146 + Decitabine (first compound 0.8 µM); 0.759 with AZ3146 + Decitabine (first compound 2.53 µM); 0.644 with AZ3146 + Decitabine (first compound 8 µM); 0.919 in the experiment with AZ3146 + Linsitinib (first compound 0.253 µM); 0.703 with AZ3146 + Linsitinib (first compound 0.8 µM). The relative viability with AZ3146 + Linsitinib (first compound 2.53 µM) was 1.01; with AZ3146 + Linsitinib (first compound 8 µM), 0.843; with GSK-J4 + Luminespib (first compound 0.5 µM) it was 0.297; in the experiment with GSK-J4 + Luminespib (first compound 1.581 µM), 0.373; with GSK-J4 + Luminespib (first compound 15.81 µM), 0.289; with GSK-J4 + Luminespib (first compound 50 µM), 0.189. The relative viability in the experiment with AZ3146 + Trametinib (first compound 0.253 µM) was 1; in the experiment with AZ3146 + Trametinib (first compound 0.8 µM) it was 1.05; in the experiment with AZ3146 + Trametinib (first compound 2.53 µM), 0.971; in the experiment with AZ3146 + Trametinib (first compound 8 µM), 1.04.
Turning to CAL-12T, the relative viability with AZ3146 + Linsitinib (first compound 0.08 µM) was 0.867; in the experiment with AZ3146 + Linsitinib (first compound 0.253 µM), 0.756; in the experiment with AZ3146 + Linsitinib (first compound 0.8 µM), 0.824; in the experiment with AZ3146 + Linsitinib (first compound 2.53 µM) it was 0.885; in the experiment with AZ3146 + Linsitinib (first compound 8 µM), 0.932; with GSK-J4 + Luminespib (first compound 0.5 µM) it was 0.83. In addition, the relative viability stood at 0.549 in the experiment with GSK-J4 + Luminespib (first compound 1.581 µM); 0.244 with GSK-J4 + Luminespib (first compound 5 µM); 0.205 with GSK-J4 + Luminespib (first compound 15.81 µM); 0.518 in the experiment with GSK-J4 + Luminespib (first compound 50 µM); 0.46 with AZ3146 + Trametinib (first compound 0.08 µM); 0.304 with AZ3146 + Trametinib (first compound 0.253 µM). The relative viability with AZ3146 + Trametinib (first compound 0.8 µM) stood at 0.321; with AZ3146 + Trametinib (first compound 2.53 µM), 0.313; with AZ3146 + Trametinib (first compound 8 µM), 0.314.
Turning to COR-L23, the relative viability stood at 0.377 with AZ3146 + Decitabine (first compound 0.08 µM); 0.461 with AZ3146 + Decitabine (first compound 0.253 µM); 0.418 with AZ3146 + Decitabine (first compound 0.8 µM); 0.467 in the experiment with AZ3146 + Decitabine (first compound 2.53 µM); 0.369 with AZ3146 + Decitabine (first compound 8 µM); 0.771 with AZ3146 + Linsitinib (first compound 0.08 µM). The relative viability in the experiment with AZ3146 + Linsitinib (first compound 0.253 µM) is 1.04; in the experiment with AZ3146 + Linsitinib (first compound 0.8 µM), 0.852; in the experiment with AZ3146 + Linsitinib (first compound 2.53 µM), 1.1; with AZ3146 + Linsitinib (first compound 8 µM) it was 0.884; in the experiment with GSK-J4 + Luminespib (first compound 0.5 µM), 0.581; with GSK-J4 + Luminespib (first compound 1.581 µM), 0.647. Besides, the relative viability with GSK-J4 + Luminespib (first compound 15.81 µM) was 0.68; with GSK-J4 + Luminespib (first compound 50 µM), 0.514; with AZ3146 + Trametinib (first compound 0.08 µM) it was 0.587; in the experiment with AZ3146 + Trametinib (first compound 0.253 µM) it was 0.646; in the experiment with AZ3146 + Trametinib (first compound 0.8 µM), 0.56; with AZ3146 + Trametinib (first compound 2.53 µM) it was 0.718. In the experiment with AZ3146 + Trametinib (first compound 8 µM), the relative viability amounted to 0.6.
In the case of COR-L 105, the relative viability with AZ3146 + Decitabine (first compound 0.08 µM) came out at 0.647; with AZ3146 + Decitabine (first compound 0.253 µM), 0.55; with AZ3146 + Decitabine (first compound 0.8 µM), 0.632; with AZ3146 + Decitabine (first compound 2.53 µM), 0.622; with AZ3146 + Decitabine (first compound 8 µM) it was 0.549; with AZ3146 + Linsitinib (first compound 0.08 µM) it was 0.963. Also, the relative viability stood at 1.2 with AZ3146 + Linsitinib (first compound 0.253 µM); 0.891 with AZ3146 + Linsitinib (first compound 0.8 µM); 0.888 with AZ3146 + Linsitinib (first compound 2.53 µM); 0.787 with AZ3146 + Linsitinib (first compound 8 µM); 0.624 with GSK-J4 + Luminespib (first compound 0.5 µM); 0.58 with GSK-J4 + Luminespib (first compound 1.581 µM). In addition, the relative viability with GSK-J4 + Luminespib (first compound 5 µM) is 0.702; in the experiment with GSK-J4 + Luminespib (first compound 15.81 µM), 0.633; with GSK-J4 + Luminespib (first compound 50 µM), 1.01; in the experiment with AZ3146 + Trametinib (first compound 0.08 µM), 0.471; with AZ3146 + Trametinib (first compound 0.253 µM), 0.414; with AZ3146 + Trametinib (first compound 0.8 µM), 0.477. Moreover, the values for the relative viability in the experiment with AZ3146 + Trametinib (first compound 2.53 µM) and in the experiment with AZ3146 + Trametinib (first compound 8 µM) were 0.427 and 0.353, respectively.
